Entries after “also recorded” stand apart in the source; their conditions may differ. Where two headings read alike, the source gives them in different places.
How the values were obtained:
primary HSCs [1] = assay: Illumina array: LPS-treated primary rat HSCs with vitamin D3 or LXR ligand T1317 (Table 3); details: co-treatment with LPS; T1317 1 μM, vitamin D3 1 nM
Method: (§2) For Illumina microarray analysis, Illumina TotalPrep RNA Amplification Kit (Ambion; Catalog # IL1791) was used with the manufacturer's instructions for the RNA amplification. […] Essentially, biotinylated cRNA was prepared according to the manufacturer's directions starting with 200 ng total RNA. Hybridization to the Illumina Sentrix RatRef-12 v.1 and Mouse RefSeq version 2 Expression BeadChips (Illumina, Inc., San Diego, Calif.), washing and scanning were performed according to the Illumina BeadStation 500× manual (revision C). […] RNA is isolated using Trizol and the quality/integrity of the total RNA verified using a Bioanalyzer (Agilent).
(§3) Microarray experiments were repeated two times with RNA from two experiments where HSCs were isolated from two different rats and for each condition triplicate samples were used. The “Detection Score” was used to determine expression using the Illumina platform. It is a statistical measure in the BeadStudio software (version 1.5.0.34), which is computed based on the Z-value of a gene relative to the Z-value of the negative controls. The Illumina data were adjusted (“normalized”) using a cubic spline function. […] The expression difference score, DiffScore, takes into account background noise and sample variability. […] Illumina expression arrays utilize gene-specific 50-mer oligonucleotide probes with an average of 30 replicates of each probe bead per individual array.
Isolated primary HSCs were cultured on plastic tissue culture plates for 40 hours prior to treatment with or without vitamin D3 (1 nM) in the presence or absence of 15 ng/ml of LPS for 24 hours. Cells were then harvested, total RNA extracted, and biotin labeled cRNA was prepared for hybridization to Illumina Rat RefSeq version 1 expression arrays. […] The data generated from these arrays was processed using Illumina BeadStudio software to identify gene expression changes between the different samples.

VDR [2] = target: T1, VDR (Rattus norvegicus, UniProt P13053); details: rat Kupffer cells, FIG. 11B
T1 sequence (P13053 1-423): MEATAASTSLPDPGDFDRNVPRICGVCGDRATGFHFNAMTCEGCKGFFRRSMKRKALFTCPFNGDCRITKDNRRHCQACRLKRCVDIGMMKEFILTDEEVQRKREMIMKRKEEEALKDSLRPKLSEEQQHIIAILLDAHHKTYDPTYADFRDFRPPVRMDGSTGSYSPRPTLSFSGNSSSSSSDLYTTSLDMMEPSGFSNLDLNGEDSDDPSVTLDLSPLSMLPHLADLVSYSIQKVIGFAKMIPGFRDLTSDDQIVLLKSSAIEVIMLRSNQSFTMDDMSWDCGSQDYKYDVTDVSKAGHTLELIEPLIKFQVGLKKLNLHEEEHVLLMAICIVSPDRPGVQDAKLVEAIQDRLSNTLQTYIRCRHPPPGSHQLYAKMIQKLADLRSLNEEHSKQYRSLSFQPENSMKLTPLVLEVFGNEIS

MCD diet model of NASH = assay: Methionine and choline deficient (MCD) diet model of NASH; format: in vivo, mouse; details: mice on MCD diet, 1 IU (25 ng) per gram body weight twice weekly
Description: The methionine and choline deficient (MCD) diet model of nonalcoholic steatohepatitis (NASH) was originally developed in the mid 1990's to provide a suitable animal model to study the pathogenesis of this common human disease (Weltman et al., 1996. Gastroenterology., 111(6):1645-53). It faithfully reproduces the hepatic steatosis, lobular inflammation and fibrosis progressing over time to more severe fibrosis as observed in the human condition. The mouse version of this model has previously been well characterized and reproducibly mice develop hepatic steatosis, inflammation and extensive perivenular and pericellular fibrosis by 10 weeks.
Male C57black wild-type and the VDR floxed knockout mice are fed ad libitum a high fat, MCD diet (ICN cat no: 960439) for up to 10 weeks. Controls are pair-fed the same diet supplemented with choline chloride (2 g/kg) and DL-methionine (3 g/kg). […]. […] Fibrosis is determined by Sirius Red staining of liver samples. Serum transaminases, lipids and bile acids and liver bile acids are quantified as previously published (Stedman et al., 2006. Proc Natl Acad Sci USA., 103(30):11323-8) and hepatic lipids, glutathione and lipid peroxidation also are analyzed using standard published protocols. Additional tissue portions are snap frozen in liquid nitrogen for later preparation of total RNA for gene expression studies by quantitative PCR and gene arrays.

VDR [3] = target: T1, VDR; details: rat SECs, FIG. 11A
[4] = cited from earlier work
[5] = tested on: CCl4-induced liver fibrosis; assay: CCl4-induced liver fibrosis model; format: in vivo, mouse
Description: . The CCl4 model of chronic liver injury and fibrosis is a well established model of liver injury, inflammation, fibrosis and cirrhosis where CCL4 is metabolized in the liver by CYP2E to a trichloromethyl free radical, which reacts with oxygen to produces a highly reactive peroxytrichloromethyl radical that initiates a damaging cycle of lipid membrane peroxidation and cell death (Leclercq et al., 2001. J. Gastroenterology and Hepatol., 24:51-59). With iterative injury (3 months in mice), extensive scarring develops as indicated by transdifferentiation of HSCs into myofibroblasts, intense myofibroblast proliferation and progressive laying down of ECM components. Following cessation of CCl4 injections, the scarring resolves completely (Kanzler et al., 1999. Am J Physiol., 276(4 Pt 1):G1059-68). These distinct phases of injury, repair, and resolution make this an ideal model for studying both injury and repair mechanisms.
Eight week-old C57BL6 mice were injected with 2 ml/kg body weight of CCl4 i.p. (1:1 v/v in corn oil) or vehicle alone twice weekly for 4 to 12 weeks. Specifically, groups of mice (n=8 per group per time point) are sacrificed at 48 hours (acute injury), 4, 8 and 12 weeks. The animals were terminated after a period of 72 hours after the final CCl4 injection and whole liver, intestine and serum were collected for histological, cytological, biochemical and molecular analyses. […]. Control mice received vehicle alone.
Twice weekly administration of CCl4 for […] caused sustained hepatocyte damage as evidenced by significant increases in serum ALT levels and marked histological changes in liver sections stained with hematoxylin and eosin. Serum ALT, AST and triglyceride (TG) and hepatic lipid peroxides (by TBARs) and TG were measured biochemically. Liver histology was scored blindly by a histopathologist using the Brunt system to determine levels of steatosis and inflammation. Expression levels of key genes involved in BA (Sult2a1) and cholesterol metabolism, transport (Bsep, Ntcp, Mdr1&2, Mrp2&3, Oatp1, 2&4), and synthesis (Srebp2, Cyp7a1) and the NXRs (Lxr, Car, Pxr & Fxr) regulating these genes were determined by real-time quantitative PCR (QPCR) with results normalized to […] (B2M). Protein expression was examined in a select number of genes by Western blotting. Statistical analysis was completed on SPSS v14 using Kruschal Wallis H and Mann-Whitney U tests with p<0.05 considered significant

VDR [6] = target: T2, VDR (Homo sapiens, UniProt P11473); assay: Real-time qPCR of CYP24A1 in human LX-2 cell line; format: cell-based
T2 construct: endogenous in cells; host or cells: human LX-2 hepatic stellate cell line
T2 sequence (P11473 1-427): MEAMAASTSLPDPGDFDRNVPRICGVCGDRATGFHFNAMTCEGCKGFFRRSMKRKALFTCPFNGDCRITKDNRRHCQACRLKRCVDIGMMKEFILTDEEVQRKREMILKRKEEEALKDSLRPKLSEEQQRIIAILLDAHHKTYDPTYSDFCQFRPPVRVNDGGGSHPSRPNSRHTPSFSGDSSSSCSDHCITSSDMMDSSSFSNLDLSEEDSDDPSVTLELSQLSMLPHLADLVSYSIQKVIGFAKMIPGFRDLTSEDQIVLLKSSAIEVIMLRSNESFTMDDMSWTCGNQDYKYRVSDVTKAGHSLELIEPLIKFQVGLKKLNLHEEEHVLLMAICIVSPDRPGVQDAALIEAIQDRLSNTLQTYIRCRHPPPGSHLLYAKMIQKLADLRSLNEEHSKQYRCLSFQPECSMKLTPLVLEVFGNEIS
Method: Human LX-2 cells were grown to 50% confluence in DMEM with 10% FBS in 6-Well plates.
(§1) For qRT-PCR, 500 ng of deoxyribonuclease-treated total RNA was reverse transcribed into cDNA using SuperScript™ III reverse transcriptase essentially as described by the manufacturer (Invitrogen). Quantification of gene of interest mRNA was performed using a Rotor-Gene, RG 6000 (Corbett Research). […] Human B2M primers were from Applied Biosystems.
TGFβ signaling is the key mediator in hepatic fibrogenesis, triggering the transition of HSCs into myofibroblast-like cells and thereby stimulating synthesis of ECM proteins. Thus, TGFβ1 is produced locally in the organ as part of the fibrotic process It has been previously reported that TGFB signaling can influence the activity of VDR-dependent genes, as depicted in (FIG. 8A). In this model, TGFβ activation results in SMAD3 phosphorylation, inducing its translocation into the nucleus where it associates with the ligand bound VDR complex. Phosphorylated SMAD3 acts as a co-activator in the VDR/vitaminD3 complex enhancing the transcriptional potential of VDR on target genes. To understand the interplay between TGFB and VDR signaling pathways, the effects of TGFβ on the well characterized VDR gene target Cyp24α1 were examined.

VDR [7] = target: T1, VDR; assay: Real-time qPCR of VDR target and vitamin D metabolising genes in primary rat HSCs; format: cell-based; set-up: endogenous in cells; host or cells: primary rat hepatic stellate cells (Sprague-Dawley rats)
Method: Activated HSCs were cultured on plastic rather than Matrigel in the same media described above. Kupffer cells (KCs) were cultured in Williams' medium E containing 10% FBS, 2 mM glutamine on plastic plates.
as §1

primary HSCs [8] = assay: Illumina array: TGFβ1-treated primary rat HSCs with vitamin D3 (Table 4); details: co-treatment with TGFβ1 100 pM, vitamin D3 1 nM, 24 h
Method: as §2, §3
The Illumina platform described above was used to identify genome-wide effects of vitamin D3-activated VDR on TGFβ signaling in primary rat HSCs. Isolated primary HSCs were cultured on plastic tissue culture plates for 40 hours prior to treatment with or without vitamin D3 (1 nM) in the presence or absence of TGFβ1 (100 pM) for 24 hours. Cells were then harvested, total RNA extracted, and biotin labeled cRNA was prepared for hybridization to an Illumina Rat RefSeq version 1 genome array. […] The data generated from these arrays was processed using Illumina BeadStudio software to identify gene expression changes between the different samples. The vitamin D3 mediated changes on TGFβ1 signaling were identified by comparing TGFβ1 and co-treated TGFβ1/vitamin D3 samples.

SMILES | Expression of neutrophil and monocyte attractants (primary HSCs [1]) | Gene induction of the interleukins IL-10 and 6 (primary HSCs [1]) | VDR activation (Cyp24a1 mRNA expression) (VDR [2]) | Production of inflammatory and fibrogenic markers (MCD diet model of NASH) | VDR activation (Cyp24a1 mRNA expression) (VDR [3]) | Levels associated with changes in calcium homeostasis ([4]; isolated reports) | Serum calcidiol with no evidence of adverse effects ([4]; requiring a supply of 250 μg (10,000 IU)) | Decrease of IL-α expression ([5]; liver, CCl4 mice) | Decrease of MCP-1 expression ([5]; liver, CCl4 mice) | Decrease of TGFβ1 expression ([5]; liver, CCl4 mice) | TNF-α induction ([5]; liver, CCl4 mice) | Production of inflammatory and fibrogenic markers ([5]; mice, CCl4, 1 IU (25 ng) per gram body weight twice weekly, FIG. 9) | Concentration giving maximal enhancement of CYP24A1 (VDR [6]; LX-2 cells, day 2) | CYP24A1 expression (VDR [6]; culture activated (day 7) LX-2 cells) | CYP24A1 expression (VDR [7]; 100 nM (10-fold higher dose), culture activated HSCs, listed as 25(OH) vitamin D3, monohydrate) | Concentration giving maximal induction of CYP24A1 (VDR [7]; day 2 HSCs) | Induction of all collagen genes by TGFβ (primary HSCs [8]) | Repression of MMP10 by TGFβ (primary HSCs [8])
O=S(=O)(c1ccccc1)N(CC(F)(F)F)c1ccc(C(O)(C(F)(F)F)C(F)(F)F)cc1 [T1317] | relatively few changes | markedly decreased |  |  |  |  |  |  |  |  |  |  |  |  |  |  |  | 
C=C1CC[C@H](O)C/C1=C/C=C1\CCC[C@]2(C)[C@@H]([C@H](C)CCCC(C)(C)O)CC[C@@H]12 [calcidiol, (5Z,7E)-9,10-Secocholesta-5,7,10(19)-triene-3β,25-diol monohydrate] |  |  | also activated | reduced | also activated | exceeding 500 nmol/l | < 140 nmol/L | about 50% | about 50% | about 50% | no induction | significantly reduced | 100 nM | barely induced | moderately increasing; also recorded: barely induced | 10 nM |  | 
C=C1CC[C@H](O)C/C1=C/C=C1\CCC[C@]2(C)[C@@H]([C@H](C)CCCC(C)C)CC[C@@H]12 [vitamin D3, reference compound] | preferentially repressed | did not alter |  |  |  |  |  |  |  |  |  |  |  |  |  |  | markedly decreased | inhibited

From patent US8318708B2, “Use of vitamin D receptor agonists, ligands, and precursors to treat pancreatic fibrosis” (Salk Institute for Biological Studies, priority 2007, dated 2012)
